Read-outs that look alike come from different tables or passages of the source.
Test system: MV-4-11 acute myeloid leukemia cells
Assay: CellTiter-Glo 2.0 cell viability, MV-4-11
Type: cell-based
Conditions: Homo sapiens
Method: 2019 October; 94(4): 1813-1823.
Cell viability was assessed using the CellTiter-Glo 2.0 assay from Promega, which yields a signal proportional to the amount of ATP present in a cell population. Compounds were first dispensed into empty 96-well flat-bottom tissue culture-treated plates (Corning) using an Echo550. MV4-1 cells were diluted to a density of 0.1 million cells per ml, pipetted onto the compounds at a density of 1,000 cells per well for U937 and 3,000 cells per well for MV4-11, mixed, and incubated for 3 days at 37° C. with 5% C02. After incubating, 5 μl of cells from each well were added to 5 μl of CellTiter-Glo 2.0 reagent in a384-well white ProxiPlate (PerkinElmer), incubated for 20 minutes at ambient temperature, and luminescence was analyzed on an EnSpire plate reader. Graphing and regression analysis was performed in Graphpad Prism.

[1] = MV4-11, 72 h, MV-4-11 cells, 3 days, CellTiter-Glo 2.0, read-out: IC50 (uM) [Cell Type: MV-4-11]
[2] = MV4-11, bound stated in text, read-out: IC50 against MV-4-11 acute myeloid leukemia cells

Row | Compound | IC50 [1] [µM] | IC50 [2] [µM]
1 | CC(C)(C)OC(=O)N1CCC(Cn2c(C(F)(F)F)cc3c(Cl)ncnc32)CC1 [NUCC-0226675, tert-butyl 4-((4-chloro-6-(trifluoromethyl)-7H-pyrrolo[2,3-d]pyrimidin-7-yl)methyl)piperidine-1-carboxylate] | 2.51 | 
2 | Oc1ncnc2c1cc(C(F)(F)F)n2CC1CCNCC1 [NUCC-0226688] | > 20 | 
3 | FC(F)(F)c1cc2c(Cl)ncnc2n1CCN1CCNCC1 [NUCC-0226682] | 2.24 | 
4 | CC(=O)N1CCC(Cn2c(C(F)(F)F)cc3c(Cl)ncnc32)CC1 [NUCC-0226676] | > 20 | 
5 | CN(C)CCn1c(C(F)(F)F)cc2c(Cl)ncnc21 [NUCC-0226666] | 2.09 | 
6 | N=C(N)N1CC(Cn2c(C(F)(F)F)cc3c(Cl)ncnc32)C1 [NUCC-0226671] | > 20 | 
7 | Cc1cc2c(Cl)ncnc2n1CC1CCNCC1 [NUCC-0226699] | > 20 | 
8 | FC(F)(F)c1cc2c(Cl)ncnc2n1CC1CCOCC1 [NUCC-0226673] | 2.68 | 
9 | Cc1ncnc2c1cc(C(F)(F)F)n2CC1CCNCC1 [NUCC-0226696] | > 20 | 
10 | FC(F)(F)c1cc2c(Cl)ncnc2n1CCn1cccn1 [NUCC-0226685] | 3.98 | 
11 | O=S1(=O)CCC(Cn2c(C(F)(F)F)cc3c(Cl)ncnc32)CC1 [NUCC-0226668] | 2.88 | 
12 | FC(F)(F)c1cc2cncnc2n1CC1CCNCC1 [NUCC-0226687] | > 20 | 

Now those with a lower IC50 [1], led by results:

Row | IC50 [1] [µM] | IC50 [2] [µM] | Compound
13 | 1.32 | < 2 | FC(F)(F)c1cc2c(Cl)ncnc2n1Cc1ccncc1 [NUCC-0226691]
14 | 0.949 | < 2 | CC(C)(C)OC(=O)N1CCN(CCn2c(C(F)(F)F)cc3c(Cl)ncnc32)CC1 [NUCC-0226681]
15 | 1.13 | < 2 | Fc1ccc(Cn2c(C(F)(F)F)cc3c(Cl)ncnc32)cc1 [NUCC-0226686]
16 | 1.12 | < 2 | FC(F)(F)c1cc2c(Cl)ncnc2n1CC1CNC1 [NUCC-0226670]
17 | 0.23 | < 2 | CC(C)(O)CCn1c(C(F)(F)F)cc2c(Cl)ncnc21 [NUCC-0226440]
18 | 0.919 | < 2 | FC(F)(F)CN1CCC(Cn2c(C(F)(F)F)cc3c(Cl)ncnc32)CC1 [NUCC-0226701]
19 | 1.6 | < 2 | NC(=O)N1CCC(Cn2c(C(F)(F)F)cc3c(Cl)ncnc32)CC1 [NUCC-0226677]
20 | 1.02 | < 2 | CC(C)(C)OC(=O)N1CC(Cn2c(C(F)(F)F)cc3c(Cl)ncnc32)C1 [NUCC-0226669]
21 | 0.11 | < 2 | O=C1CCCN1CCn1c(C(F)(F)F)cc2c(Cl)ncnc21 [NUCC-0226439]
22 | 0.94 | < 2 | Cc1n[nH]c(C)c1CCn1c(C(F)(F)F)cc2c(Cl)ncnc21 [NUCC-0226684]
23 | 2.01 |  | O=c1cc(Cn2c(C(F)(F)F)cc3c(Cl)ncnc32)cc[nH]1 [NUCC-0226693]
24 | 0.773 | < 2 | FC(F)(F)c1cc2c(Cl)ncnc2n1CCC1CCNCC1 [NUCC-0226692]
25 | 1.08 | < 2 | COc1ccc(Cn2c(C(F)(F)F)cc3c(Cl)ncnc32)cn1 [NUCC-0226697]
26 | 1.43 | < 2 | FC(F)(F)c1cc2c(Cl)ncnc2n1CCN1CCCC1 [NUCC-0226667]
27 | 0.871 | < 2 | FC(F)(F)CN1CC(Cn2c(C(F)(F)F)cc3c(Cl)ncnc32)C1 [NUCC-0226672]
28 | 1.23 | < 2 | OCCOCCn1c(C(F)(F)F)cc2c(Cl)ncnc21 [NUCC-0226665]
29 | 0.562 | < 2 | FC(F)(F)c1cc2c(Cl)ncnc2n1Cc1cccnc1 [NUCC-0226690]
30 | 1.3 | < 2 | CC(C)(C)OC(=O)N1CCC(CCn2c(C(F)(F)F)cc3c(Cl)ncnc32)CC1 [NUCC-0226678]

— patent US20240109903A1, “SUBSTITUTED HETEROCYCLES FOR TREATING CANCER” (Northwestern University, priority 2022, published 2024)
